In US20120258938A1, “Enzymatic Production or Chemical Synthesis and Uses for 5,7-Dienes and UVB Conversion Products Thereof” (priority 2008, published 2012):
Values belong to the molecule of their own block, whether it stands above or below them.

Key:
Col1A1 mRNA = experiment: Real time RT PCR Col1A1 mRNA, TGF-b1 stimulated skin fibroblasts; type: cell-based; settings: human skin fibroblasts
Protocol: Additional studies using human skin fibroblasts were performed employing a type I collagen specific ELISA Chondrex, and real time RT PCR to quantitate type I collagen protein and Col1A1 mRNA expression in culture of human fibroblast stimulated by TGF-b1 in the presence and absence of 17,20S(OH)2pD3 and/or 20(OH)D3. These studies confirmed that Type I collagen protein production that was induced by TGF-b1 and that Col1A1 mRNA that was induced by TGF-b1 were suppressed by these analogues (FIGS. 44A-44B).

CYP27B1 = experiment: Real-time RT PCR CYP27B1 mRNA, normal epidermal keratinocytes; type: cell-based, human; settings: 10^−8 M, 1 h
Protocol: (§1) RNA was extracted using an Absolutely RNA RT-PCR Miniprep Kit (Stratagene, La Jolla, Calif.). Real time PCR and reverse transcription products were purchased from Applied Biosystems, Foster City, Calif. Reverse transcription was performed using Taqman® Reverse Transcription Reagents. The following PCR products were used: cytokeratin 14: Hs00265033_m1, involucrin: Hs00846307_s1, CYP27A1: Hs00168003_ml, CYP27B1: Hs00168017_ml, 18SrRNA: Hs99999901_s1. The reaction was performed with Taqman® Universal PCR Master Mix; data were collected on an ABI Prism 7700 and analyzed on Sequence Detector 1.9.1. Specific gene amounts were related to 18SrRNA by comparative CT method.

HaCaT keratinocytes [1] = experiment: Colony forming (clonogenicity) assay in HaCaT keratinocytes; type: cell-based, human; settings: 10^−8 M, 10 days
Protocol: HaCaT and human adult epidermal keratinocytes were cultured and DNA synthesis experiments were performed as described previously (26). Cells were plated in 6-well plates at a density of 20 cells/cm^2 in DMEM (Cellgro, Herndon Va.) containing 5% charcoal-treated fetal bovine serum (Hyclone, Logan, Utah), 1% antibiotic solution (PSA, Sigma, St. Louis, […].) and vehicle or secosteroids. Cells were incubated in 37° C. for 10 days with media being changed every 72 hr. Cells were fixed with 4% paraformaldehyde in PBS overnight, stained with 0.5% crystal violet in PBS for 15 min, rinsed and air-dried. The number and size of the colonies were measured using an ARTEK counter 880 (Dynex Technologies Inc., Chantilly, Va.). Colony forming units were calculated as follows: number of colonies (size>0.5 mm) was divided by the number of cells plated and multiplied by 100.

involucrin [2] = experiment: Involucrin protein expression in HaCaT (flow cytometry, microscopy); type: cell-based, human; settings: 10^−8 M, 24 h, flow cytometry
CYP27A1 [3] = experiment: Real-time RT PCR CYP27A1 mRNA, normal epidermal keratinocytes; type: cell-based, human; settings: 10^−8 M, 24 h
Protocol: as §1

HaCaT keratinocytes [4] = experiment: Forward and side scatter (cell size, granularity) of HaCaT keratinocytes; type: cell-based, human; settings: HaCaT; 20-hydroxycholecalciferol at 0.1 nM
Protocol: The FL-1 signal (collected from 10,000 events in side scatter/forward scatter window after debris exclusion) was recorded. Forward (relative to cell size) and side (relative to cell granularity) scatter histograms were generated and mean signal intensity was recorded. FL-1 signal values are presented as dMFI (difference between mean fluorescence intensity of sample stained with specific and isotype control antibody). Scatter signal values are presented as MSI (mean signal intensity). Signal intensities were analyzed with Cell Quest (BD Biosciences, San Diego, Calif.) and graphical representations of the FL-1 signal were prepared with WinMdi 2.8 (shareware from Joseph Trotter, The Scripps Research Institute, San Diego, Calif.).

rat CYP24 = molecular target: T1, rat CYP24 (Rattus norvegicus, UniProt Q09128); experiment: Metabolism by rat CYP24 in phospholipid vesicles
T1 sequence (Q09128 36-514): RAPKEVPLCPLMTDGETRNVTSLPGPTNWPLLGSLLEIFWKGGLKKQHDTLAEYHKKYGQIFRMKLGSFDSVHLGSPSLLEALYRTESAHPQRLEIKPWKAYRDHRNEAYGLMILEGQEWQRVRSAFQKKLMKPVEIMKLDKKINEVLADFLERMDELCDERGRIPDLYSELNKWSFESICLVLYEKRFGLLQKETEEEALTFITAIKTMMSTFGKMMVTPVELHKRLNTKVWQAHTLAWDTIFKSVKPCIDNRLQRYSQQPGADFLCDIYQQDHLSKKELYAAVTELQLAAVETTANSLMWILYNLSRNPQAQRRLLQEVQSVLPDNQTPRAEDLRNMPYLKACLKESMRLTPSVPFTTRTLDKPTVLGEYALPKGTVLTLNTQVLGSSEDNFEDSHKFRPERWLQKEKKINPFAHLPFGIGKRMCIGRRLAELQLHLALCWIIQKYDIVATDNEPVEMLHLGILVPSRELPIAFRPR
Protocol: Samples (typically 0.25-1.0 mL) were incubated at 37° C., with shaking, then reactions terminated by the addition of 2.5 mL ice-cold dichloromethane and vortexing. After phase separation aided by centrifugation, the lower organic phase was retained and the upper aqueous phase was extracted twice more with 2.5 mL aliquots of dichloromethane. The dichloromethane was removed under nitrogen and the residual sample dissolved in solvent for HPLC analysis.
(§2) To test enzymatic metabolism of 20S(OH)D3 and 20R(OH)D3, the substrates were incorporated into phospholipid vesicles with the ratio of substrate to phospholipid being 0.025 mol/mol phospholipid. Vesicles were incubated with 2 μM bovine CYP11A1 or 0.06 μM human CYP27B1 for up to 10 min. To test enzymatic metabolism of 20(OH)D3 in CYP24, the substrate was incorporated into phospholipids vesicles with 0.15-0.5 μM CYP24. To test enzymatic metabolism of 20(OH)D3 in CYP27A1, purified CYP27A1 was preincubated with the vesicles for 6 min at 37° C. Adrenodoxin was added last to initiate the reaction. For kinetic experiments, the incubations were typically 0.5 mL and were carried out over the initial linear period of the reaction (10 min for vitamin D3 and cholesterol and 30 min for 20(OH)D3).

involucrin [5] = experiment: Real-time RT PCR involucrin mRNA, normal human epidermal keratinocytes; type: cell-based; settings: 10^−8 M, 6 h
Protocol: as §1

CYP24 promoter = experiment: CYP24-Luc reporter in normal epidermal keratinocytes; type: cell-based, human; settings: 24 h
Excerpt: The CYP24-Luc construct was a generous gift from Dr Tai Cheng (Boston University Medical Campus, Core Lab Director). It was originally developed by Vaisanen et al. (27). The details of the pLuc construct have been described previously (28-29). Normal epidermal keratinocytes were transfected using Lipofectamine Plus (Invitrogen, Carlsbad, Calif.) in Epilife medium with firefly luciferase reporter gene plasmid and with phRL-TK (expresses Renilla luciferase and serves as normalization control; Promega, Madison, Wis.). After transfection, cells were incubated for 24 hours in EpiLife medium with HKGS. Cells were then transferred to fresh media containing the compounds to be tested or vehicle (ethanol) and incubated for 24 hours. The firefly luciferase and Renilla luciferase signals were recorded with a TD-20/20 luminometer (Turner Designs, Sunnyvale, Calif.); background luminescence was subtracted and the resulting promoter-specific firefly signal was divided by the Renilla signal (proportional to the number of transfected cells). The values obtained were divided by the mean of control (untreated) cells.

CYP27A1 [6] = molecular target: T2, CYP27A1 (Homo sapiens, UniProt Q02318); experiment: Metabolism by CYP27A1 (cyclodextrin or phospholipid vesicles); settings: cyclodextrin
T2 sequence (Q02318 34-531): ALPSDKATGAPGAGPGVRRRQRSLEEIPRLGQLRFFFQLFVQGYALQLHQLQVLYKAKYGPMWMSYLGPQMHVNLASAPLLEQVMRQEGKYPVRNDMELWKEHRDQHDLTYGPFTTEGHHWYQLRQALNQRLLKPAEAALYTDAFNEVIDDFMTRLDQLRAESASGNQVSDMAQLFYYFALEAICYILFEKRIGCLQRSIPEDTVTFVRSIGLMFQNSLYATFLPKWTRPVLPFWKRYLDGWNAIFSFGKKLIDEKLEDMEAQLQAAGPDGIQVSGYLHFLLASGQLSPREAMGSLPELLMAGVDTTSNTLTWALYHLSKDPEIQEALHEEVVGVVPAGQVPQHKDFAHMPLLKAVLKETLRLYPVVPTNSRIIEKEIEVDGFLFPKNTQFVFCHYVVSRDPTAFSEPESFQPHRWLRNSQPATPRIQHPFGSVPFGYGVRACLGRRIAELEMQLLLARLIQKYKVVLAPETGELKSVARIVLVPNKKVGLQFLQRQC
Protocol: as §2
Kinetic characterization of the metabolism of 20(OH)D3 by CYP27A1 was carried out with substrate dissolved in either cyclodextrin or phospholipid vesicle. Vitamin D3 and 20(OH)D3 were incubated with 0.4 μM CYP27A1 and 1 μM CYP27A1, respectively, for 10 and 30 min. The products were analyzed by reverse phase HPLC. The hyperbolic curves were fitted using the equation v/[E]=(kcat—[S])/(Km+[S]) where v is reaction velocity, [E] is the CYP27A1 concentration, and [S] the substrate concentration.

cytochrome P450scc = molecular target: T3, cytochrome P450scc (Bos taurus, UniProt P00189); experiment: Metabolism by cytochrome P450scc in cyclodextrin; settings: substrate in 0.45% cyclodextrin
T3 sequence (P00189 40-520): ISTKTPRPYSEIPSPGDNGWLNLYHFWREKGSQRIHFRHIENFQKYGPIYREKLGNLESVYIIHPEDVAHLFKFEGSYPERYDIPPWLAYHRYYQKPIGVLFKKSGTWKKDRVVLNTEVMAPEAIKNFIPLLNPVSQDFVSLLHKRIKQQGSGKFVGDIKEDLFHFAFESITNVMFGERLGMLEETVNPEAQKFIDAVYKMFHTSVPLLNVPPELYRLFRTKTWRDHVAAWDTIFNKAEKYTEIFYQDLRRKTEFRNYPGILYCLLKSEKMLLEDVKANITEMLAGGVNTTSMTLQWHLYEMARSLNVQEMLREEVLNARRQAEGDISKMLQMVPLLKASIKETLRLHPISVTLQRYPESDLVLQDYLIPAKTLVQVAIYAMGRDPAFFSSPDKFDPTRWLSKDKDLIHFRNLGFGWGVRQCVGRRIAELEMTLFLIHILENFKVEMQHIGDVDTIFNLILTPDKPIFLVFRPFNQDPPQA
Protocol: Adrenodoxin was expressed in Escherichia coli and purified as described before (41). […] Metabolites were analysed using a Perkin Elmer HPLC equipped with a C18 column (Brownlee Aquapore, 22 cm×4.6 mm, particle size 7 μm).

Structure (SMILES): C=C1CCC(O)CC1=CC=C1CCCC2(C)C1CCC2(O)C(C)O [17,20Rdi(OH)pD, (5Z,7E)-(20R)-9,10-secopregna-5,7,10(19)-triene-3β,17α,20-triol]
TGF-b1 induced Col1A1 mRNA (Col1A1 mRNA): reduce TGF-β1 induced Col1A1 mRNA

kcat (rat CYP24; phospholipid vesicles): 52.6±2.9 mol/min/mol CYP24 | kcat higher than that for 1,25(OH)2D3 (rat CYP24; phospholipid vesicles): 3.8 fold
Structure (SMILES): C=C1CC[C@H](O)C/C1=C/C=C1\CCC[C@]2(C)[C@@H]([C@H](C)CCCC(C)(C)O)CC[C@@H]12 [25-hydroxycholecalciferol, (5Z,7E)-9,10-secocholesta-5,7,10(19)-triene-3β,25-diol, reference compound]
increase of CYP27B1 expression (CYP27B1): ~1.3 fold | inhibition of colony formation (HaCaT keratinocytes [1]): no significant effect | increase in the expression of involucrin (involucrin [2]): negligible | inhibition of CYP27A1 expression (CYP27A1 [3]): ~1.9 fold | forward scatter, mean signal intensity (MSI) (HaCaT keratinocytes [4]): 254±0.06 | Km (rat CYP24): 0.0080±0.0016 mol substrate/mol phospholipid | stimulation of involucrin mRNA (involucrin [5]): ~2.1 fold | stimulation of transcriptional activity of the CYP24 promoter (CYP24 promoter): ~12 fold

Structure (SMILES): C=C1CC[C@H](O)C/C1=C/C=C1\CCC[C@]2(C)[C@@H]([C@H](C)CCCC(C)C)CC[C@@H]12 [cholecalciferol, (5Z,7E)-9,10-secocholesta-5,7,10(19)-triene-3β-ol, reference compound]
kcat (CYP27A1 [6]): 0.0283 ± 0.00233 s⁻¹ | kcat (cytochrome P450scc): 19.7±0.9 mol/min P450scc
